Tests used:
Type in all cases: functional, Homo sapiens
Design in all cases: dose or concentration left out as unconfirmed
[1] = test system: Colon cancer organoid; test: Optimized Dual-Glo assay to identify co-culture induced drug vulnerabilities using donated chemical probes and chemogenomics kinase set in O06 CRC organoid and F06 CAF mono and co-culture. […] Cell viability is reported both mono and co-culture models.
[2] = test system: Colon cancer organoid; test: Optimized Dual-Glo assay to identify co-culture induced drug vulnerabilities using donated chemical probes and chemogenomics kinase set in O14 CRC organoid and F14 CAF mono and co-culture. […] Cell viability is reported both mono and co-culture models.
[3] = test system: Colon cancer organoid; test: Optimized Dual-Glo assay to identify co-culture induced drug vulnerabilities using donated chemical probes and chemogenomics kinase set in O20 CRC organoid and F20 CAF mono and co-culture. […] Cell viability is reported both mono and co-culture models.
[4] = Culture type Co-Culture, Transduced with Lucferase2-P2A-EGFP lentivirus
[5] = Culture type Co-Culture, Transduced with Renilla-dsRed lentivirus
[6] = Culture type Mono-Culture, Transduced with Lucferase2-P2A-EGFP lentivirus
[7] = Culture type Mono-Culture, Transduced with Renilla-dsRed lentivirus

Row | SMILES | Cell Viability [1, 4] [%] | Cell Viability [1, 5] [%] | Cell Viability [1, 6] [%] | Cell Viability [1, 7] [%] | Cell Viability [2, 4] [%] | Cell Viability [2, 5] [%] | Cell Viability [2, 6] [%] | Cell Viability [2, 7] [%] | Cell Viability [3, 4] [%] | Cell Viability [3, 5] [%] | Cell Viability [3, 6] [%] | Cell Viability [3, 7] [%]
1 | C[C@H](NC(=O)c1cnc2n1[C@](C)(Cc1ccc(C#N)cc1)C(=O)N2c1cc(Cl)c(F)c(Cl)c1)C(=O)NC1(c2ccccn2)CC1 [BI 1950] | 123.241 | 151.567 | 111.279 | 104.666 | 114.581 | 100.802 | 131.753 | 112.137 | 121.807 | 97.0159 | 112.646 | 94.255
2 | CN1C[C@H](Nc2cnn(C)c(=O)c2Br)C[C@H](c2ccccc2)C1 | 52.3497 | 181.327 | 101.698 | 109.538 | 72.8555 | 143.992 | 98.7271 | 111.977 | 159.897 | 106.068 | 104.311 | 120.493
3 | CCS(=O)(=O)Nc1ccc(Oc2ccc(F)cc2F)c(-c2cn(C)c(=O)c3[nH]ccc23)c1 [MIVEBRESIB] | 13.1828 | 272.686 | 12.7607 | 153.585 | 11.3223 | 338.596 | 8.201 | 180.439 | 5.728 | 64.2458 | 7.404 | 12.1973
4 | COc1ccccc1-c1cc(Nc2cccc(CS(N)(=O)=O)c2)ncn1 | 105.6 | 95.8866 | 67.576 | 79.9168 | 107.839 | 92.9577 | 111.603 | 77.4194 | 104.861 | 97.4583 | 84.7968 | 76.3761
5 | CC1=C(C)C(=O)C(C(C)(C)CC(=O)N(CCCCSC[C@H]2O[C@@H](n3cnc4c(N)ncnc43)[C@H](O)[C@@H]2O)Cc2cccc(-c3ccc(Cl)cc3)c2)=C(C)C1=O | 117.447 | 138.552 | 64.6918 | 115.82 | 78.0162 | 155.416 | 78.4613 | 102.407 | 99.381 | 114.813 | 107.414 | 99.5191
6 | CC(=O)c1cc(-c2ccccc2OCC2CC2)c2ncccn12 | 107.249 | 181.775 | 93.2808 | 95.3402 | 80.3991 | 93.1948 | 108.194 | 100.736 | 90.8424 | 121.201 | 99.1369 | 90.8457
7 | Nc1ncnc2c1ccn2[C@@H]1O[C@H]([C@H](O)c2ccccc2)[C@@H](O)[C@H]1O | 22.7938 | 108.338 | 39.3105 | 99.7719 | 19.223 | 140.259 | 27.9797 | 80.8035 | 28.437 | 179.519 | 41.1766 | 89.3267
8 | CCOc1cc(N2CCC(O)CC2)ccc1Nc1ncc2c(n1)N(C1CCCC1)CCC(=O)N2C | 80.3618 | 151.464 | 49.5621 | 184.932 | 86.8191 | 245.351 | 52.078 | 149.574 | 51.9112 | 144.517 | 36.2832 | 127.288
9 | CN1CCN(c2cnc3c(C4CCN(C(=O)c5ccc(OC(F)(F)F)cc5N)CC4)ncnc3c2)CC1 [BAY-885] | 128.922 | 132.533 | 82.0167 | 90.7895 | 92.1967 | 106.052 | 52.9657 | 104.304 | 78.3205 | 141.163 | 69.7079 | 80.8249
10 | Cc1c(NC(=O)c2ccc(C(C)(C)C)cc2)cccc1-c1cn(C)c(=O)c(Nc2ccc(C(=O)N3CCOCC3)cc2)n1 | 105.279 | 113.435 | 83.7541 | 97.4758 | 85.4676 | 81.7664 | 100.184 | 91.8671 | 109.579 | 88.3582 | 122.68 | 92.088
11 | Cl.Cn1cncc1[C@](O)(COc1ccc(C#N)cc1-c1ccc(OC(F)(F)F)cc1)c1ccc(C#N)cc1 | 31.9269 | 197.169 | 11.7395 | 58.9843 | 26.9606 | 99.4366 | 53.0011 | 61.9663 | 15.3114 | 150.357 | 17.164 | 65.8997
12 | Cn1cc(-c2ccc3occ(-c4ccccc4-c4ccccc4)c3n2)cn1 | 137.24 | 150.558 | 120.153 | 121.662 | 101.217 | 93.8283 | 119.561 | 96.0811 | 88.7548 | 89.3741 | 123.78 | 115.172
13 | CCCOc1ccn2c(C(C)=O)cc(-c3ccccc3S(C)(=O)=O)c2c1 | 121.922 | 129.269 | 172.982 | 130.382 | 117.77 | 112.498 | 105.54 | 97.3869 | 148.391 | 117.742 | 112.445 | 111.137
14 | COc1ncc(-c2ccc3nccc(-c4ccnnc4)c3c2)cc1NS(=O)(=O)c1ccc(F)cc1F [OMIPALISIB] | 2.362 | 34.7423 | 3.227 | 27.5983 | 1.562 | 61.2077 | 2.831 | 44.5325 | 2.277 | 94.8256 | 1.422 | 74.6652
15 | COc1ccc2c(c1)O[C@H](c1ccc(OC)c(OC)c1)C[C@@H]2NC(=O)C1(c2ccc3c(c2)OC(F)(F)O3)CC1 [A-1596584] | 86.7173 | 88.6658 | 66.4869 | 108.119 | 97.6687 | 114.369 | 74.3649 | 92.2647 | 72.8626 | 142.746 | 90.2448 | 98.4012
16 | NS(=O)(=O)c1cc(NC(=O)Cc2ccccc2)ccc1Oc1cccc(Cl)c1 [BAY-1797] | 120.23 | 167.635 | 96.4062 | 112.706 | 108.747 | 112.127 | 131.361 | 106.475 | 89.0927 | 86.996 | 102.238 | 103.793
17 | CN(C)C(=O)/C(C#N)=C/c1ccc(-c2nc3cnc4[nH]ccc4c3n2C2CCCCC2)o1 | 95.2227 | 96.9669 | 138.382 | 96.6584 | 115.273 | 92.8472 | 120.035 | 91.5278 | 75.2682 | 130.215 | 113.424 | 104.709
18 | CCOC(=O)Nc1cc(-c2ccc(C)c(NS(C)(=O)=O)c2)nn2c(C)nnc12 | 112.605 | 266.102 | 81.8905 | 215.442 | 71.1092 | 228.167 | 66.8371 | 176.186 | 38.58 | 177.965 | 39.5437 | 109.867
